Holding throughout (assay): inhibition of tumour cell growth, NCI panel, 48 h
Assay [1] deals with MALME-3M melanoma.
For assay [2], the system named is SNB-75 CNS.
The subject of assay [3] is HT29 colon.
Assay [4] has as its system UACC-62 melanoma.
Assay [5] has as its system HCT-15 colon.
The test system of assay [6] is MCF7 breast.
Assay [7] relates to SK-MEL-2 melanoma.
For assay [8], the system named is HCC-2998 colon.
The subject of assay [9] is RPMI-8226 leukemia.
The subject of assay [10] is SF-295 CNS.

“And” between values parts separate entries of the source, which are not always exact repeats. Equal values may be shown once.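 Five compound concentrations were applied to cells in 96-well plates for 48 hours; endpoints were derived by simple linear interpolation of the resulting dose-response curve. Here, GI50 denotes the concentration required for 50% inhibition of growth. TGI denotes the concentration required for complete inhibition of growth.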

On to `CC1(C)N=C(N)N=C(N)N1c1cccc(CCCCOc2ccccc2)c1`, for which the GI50 is 7220 nM in [1]; 0.195 µM in assay [2]; less than 0.01 µM in assay [3]; 46.7 nM in assay [4]; 3.01 µM in [5]; 50 nM in assay [6]. Further, the GI50 in assay [7] is 1.61 µM; in [8], 77.5 nM; in [9], 0.0601 µM; in [10], 0.34 µM. For the same compound, the TGI in assay [1] was 29.8 µM; in assay [2], 22.9 µM; in [3], 15.7 µM; in assay [4], 13.7 µM; in assay [5], greater than 100 µM; in assay [6] it was 17.5 µM. Further, the TGI in assay [7] is 19.9 µM; in assay [8], 17.2 µM; in assay [9] it was 13.6 µM; in assay [10] it was greater than 68.4 µM.

In the case of `CSC1=Nc2c(c(C)c(C)n2COC(CO)CO)C2=NC(=O)CC(C)N12` (stereo not given), the GI50 in assay [1] is greater than 100000 nM; in assay [2], 30.7 µM; in assay [3], greater than 100 µM; in assay [4] it was greater than 100000 nM; in assay [5] it was greater than 100 µM; in assay [6] it was greater than 100000 nM. Moreover, the GI50 in assay [7] is greater than 100 µM; in assay [8] it was greater than 100000 nM; in [9], greater than 100 µM; in [10], greater than 100 µM. Besides, the TGI in [1], in assay [2], in assay [3], in [4], in assay [5] and in [6] was greater than 100 µM throughout. For the same compound, the TGI in assay [7], in [8], in assay [9] and in assay [10] was greater than 100 µM in each case.

Regarding `O=C(O)CP(=O)(O)O`, the TGI in assay [1], in assay [2], in [3], in assay [4], in assay [5] and in assay [6] was greater than 100 µM each time. Also, the TGI in assay [7], in assay [8], in assay [9] and in assay [10] was greater than 100 µM each time.

Take `O=C1/C(=C/c2ccccc2F)CN(C(=O)C(Cl)Cl)C/C1=C\c1ccccc1F`: the GI50 in assay [1] was 599 nM; in [2] it was 0.572 µM; in [3], 0.271 µM; in assay [4], 378 nM; in [5], 0.217 µM; in assay [6], 101 nM. For the same compound, the GI50 in assay [7] was 1.6 µM; in assay [8] it was 696 nM; in [9] it was 0.0831 µM; in assay [10] it was 0.391 µM. The TGI in assay [1] came out at 1.92 µM; in assay [2] it was 1.95 µM; in assay [3], 1.06 µM; in [4], 1.08 µM; in assay [5], 0.694 µM; in [6], 0.983 µM. Also, the TGI in [7] amounted to 3.62 µM; in assay [8] it was 1.96 µM; in assay [9], 0.935 µM; in assay [10], 1.52 µM.

Consider `CSc1nc(C)c(Br)c(=O)n1C1OC(COC(C)=O)C(OC(C)=O)C(OC(C)=O)C1OC(C)=O` (stereo not given), for which the GI50 in assay [1] was > 100000 nM and 33400 nM; in [2] it was 10.5 µM and 26.5 µM; in assay [4], 97000 nM and 23300 nM. For the same compound, the TGI was > 100 µM and 70.4 µM in assay [1]; 51.8 µM and 65.1 µM in assay [2]; greater than 100 µM in assay [3]; > 100 µM and 44.1 µM in assay [4]; greater than 100 µM in [5]; greater than 100 µM in assay [6]. For the same compound, the TGI in assay [7] was greater than 100 µM; in assay [8], greater than 100 µM; in [9], greater than 100 µM; in assay [10], 79.7 µM and 70.8 µM.

With `O=C1CCC(N2Cc3c(C#CCCCNC(=O)c4cc5c(o4)C(=O)c4ccccc4C5=O)cccc3C2=O)C(=O)N1` (stereo not given), the GI50 was 988 nM in [1]; 2.09 µM in assay [2]; 5.92 µM in assay [3]; 1870 nM in assay [4]; 16.4 µM in assay [5]; 1630 nM in assay [6]. In addition, the GI50 in [7] was 2.54 µM; in [8], 2630 nM; in assay [9] it was 6.93 µM; in assay [10], 2.84 µM. Besides, the TGI in [1] amounted to 2.19 µM; in assay [2], 4.72 µM; in assay [3], 39.9 µM; in [4], 3.65 µM; in assay [5] it was 45.4 µM; in assay [6] it was 3.73 µM. Moreover, the TGI in [7] was found to be 6.47 µM; in assay [8], 6.63 µM; in [9], 30.1 µM; in assay [10], 8.03 µM.

H-HIIKKIRTWYRKAWHVLGKV-NH2: the GI50 in assay [1] was 2290 nM; in assay [2] it was 11.9 µM; in assay [3], 14.8 µM; in assay [5] it was 4.24 µM; in [6] it was 2050 nM; in assay [7], 5.31 µM. Moreover, the GI50 in assay [8] was 3880 nM; in assay [9] it was 8.62 µM; in assay [10], 4.8 µM. Moreover, the TGI was 5.25 µM in [1]; 30.4 µM in [2]; greater than 100 µM in [3]; 64.7 µM in [5]; 4.58 µM in [6]; 28.2 µM in assay [7]. Besides, the TGI was 31.2 µM in assay [8], 45 µM in assay [9] and 22.8 µM in [10].

`CS(=O)(=O)c1ccc(Oc2cc(F)cc(C#N)c2)c2c1[C@H](O)C(F)(F)C2`: the GI50 in [1] was greater than 100000 nM; in [2], greater than 100 µM; in assay [3] it was greater than 100 µM; in [5], greater than 100 µM; in [6] it was greater than 100000 nM; in assay [7], greater than 100 µM. Also, the GI50 in [8] is greater than 100000 nM; in [9] it was greater than 100 µM; in [10], greater than 100 µM. Besides, the TGI in assay [1], in assay [2], in assay [3], in assay [5], in [6] and in [7] was greater than 100 µM throughout. The TGI in assay [8], in assay [9] and in [10] was greater than 100 µM in each case.

As for `O=C1CC[C@H](c2ccc(O)c3c2C(=O)[C@@H]2O[C@@H]2C3=O)c2cccc(O)c21`, the GI50 in assay [1] was 2310 nM; in assay [2] it was 26.7 µM; in assay [3] it was 2.33 µM; in assay [4] it was 1750 nM; in [6] it was 1170 nM; in assay [7], 13 µM. Further, the GI50 in [8] is 2120 nM; in assay [10], 15.4 µM. Also, the TGI in [1] was 6.37 µM; in [2], greater than 100 µM; in [3] it was 6.3 µM; in assay [4] it was 3.73 µM; in assay [6], 4.2 µM; in assay [7] it was 26.9 µM. The TGI in assay [8] was 4.29 µM; in assay [10], 29.7 µM.

(Values after PubChem BioAssay (NCI).)
